Where a name gives a salt, the structure may show the parent alone.
Columns and labels:
[1] = tested on: IRF (Interferon Regulatory Factor) pathway; assay: Effect on IRF (Interferon Regulatory Factor) pathway, Quanti-luc reporter cells; type: cell-based; conditions: activation of the IRF pathway, luminescence, about 24 hours incubation
Protocol: The cells mainly described at lines 12-20 of the right column on page 183 in Mol Immunol. 2017, Vol. 90, p. 182-189 were suspended in RPMI medium to prepare 2×10^6 cells/mL of cell suspension. 50 μL of the cell suspensions were dispensed into a 96-well plate, to which 50 μL of 6 to 20,000 nmol/L compound solutions were added. After adding the compound, the mixture thereof was incubated at 37° C. for about 24 hours. After incubation, 10 μL of cell suspensions were collected from each well, which were mixed with 50 μL of Quanti-luc (Invivogen). Then, the activation of the IRF pathway was measured by detecting luminescence using a microplate reader (Molecular Devices).

[2] = Conversion of a prodrug to its active body (Compound B) in mouse plasma; type: in vitro ADME; conditions: 1 μmol/L, 37° C., 60 minutes
Protocol: (§1) The solutions of the example compounds in Table 2 below (50 μmol/L, 50% acetonitrile with 5% DMSO) were added to plasma (245 μL), respectively, such that the final concentrations thereof become 1 μmol/L. After keeping them the temperature at 37° C. for 60 minutes, 40 μL of the reaction solutions were taken therefrom, and added to 200 μL of acetonitrile/ethanol (7:3) containing Candesartan (internal standard).
(§2) The concentration of the compound prepared in Example 3 (Compound B) in the plasma resulting from the above reaction was analyzed by LC-MS/MS according to the following method.
(§3) The whole amount was transferred to a filter plate for protein removal and filtered by suction, and the filtrate thereof was diluted 2-fold with water. [LC column] Shim-pack XR-ODSII 2.0 mm ID×75 mm (Shimadzu Corporation) [LC condition] Column temperature: 40° C. Mobile phase: A: 0.2% formic acid in 5 mM ammonium acetate solution; and
(§4) [MS conditions] Electrospray, positive mode, multiple reaction monitoring; MS monitor ion: Compound B: m/z353.0→m/z311.2, DP: 80, CE: 35; and Candesartan (internal standard): m/z309.1→m/z163.0, DP: 71, CE: 21.
(§5) A regression formula was calculated from the peak area ratio (peak area of Compound B/peak area of Candesartan) of the real sample and the standard sample for the calibration curve in the same matrix, and the peak area ratio of the real sample was substituted into the regression formula to calculate the quantitative value. 60 minutes later, the concentration of Compound B in the sample was compared, and the conversion rate (%) thereof was calculated using the following formula:
(§6) Conversion rate (%)=Concentration of Compound B in the sample after 60 minutes (μmol/L)×100

[3] = Conversion of a prodrug to its active body (Compound B) in human plasma; type: in vitro ADME; conditions: 1 μmol/L, 37° C., 60 minutes
Protocol: as §1, §2, §3, §4, §5, §6

Structure (SMILES)	EC50 [1]	Plasma conversion rate Mouse [2]	Plasma conversion rate Human [3]
NC(=O)c1cc(-c2ncc(-c3cn[nH]c3)c3onc(N)c23)c(F)cc1N [Example 4(5), 2-amino-5-(3-amino-7-(1H-pyrazol-4-yl)isoxazolo[4,5-c]pyridin-4-yl)-4-fluorobenzamide hydrochloride]	80 nM		
CCOC(=O)c1cc(-c2ncc(-c3cn[nH]c3)c3onc(N)c23)c(F)cc1N [Example 4(6), ethyl 2-amino-5-(3-amino-7-(1H-pyrazol-4-yl)isoxazolo[4,5-c]pyridin-4-yl)-4-fluorobenzoate hydrochloride]	40 nM		
CCC(=O)c1cc(-c2ncc(-c3cn[nH]c3)c3onc(N)c23)c(F)cc1N [Example 4(7), 1-(2-amino-5-(3-amino-7-(1H-pyrazol-4-yl)isoxazolo[4,5-c]pyridin-4-yl)-4-fluorophenyl)propan-1-one hydrochloride]	20 nM		
CCNC(=O)c1cc(-c2ncc(-c3cn[nH]c3)c3onc(N)c23)c(F)cc1N [Example 4(8), 2-amino-5-(3-amino-7-(1H-pyrazol-4-yl)isoxazolo[4,5-c]pyridin-4-yl)-N-ethyl-4-fluorobenzamide hydrochloride]	20 nM		
CNC(=O)c1cc(-c2ncc(-c3cn[nH]c3)c3onc(N)c23)ccc1N [Example 4(15), 2-amino-5-(3-amino-7-(1H-pyrazol-4-yl)isoxazolo[4,5-c]pyridin-4-yl)-N-methylbenzamide hydrochloride]	100 nM		
CSc1cc(-c2ncc(-c3cn[nH]c3)c3onc(N)c23)c(Cl)cc1N [Example 4(16), 4-(4-amino-2-chloro-5-(methylthio)phenyl)-7-(1H-pyrazol-4-yl)isoxazolo[4,5-c]pyridin-3-amine hydrochloride]	1000 nM		
CSc1cc(-c2ncc(-c3cn[nH]c3)c3onc(N)c23)c(F)cc1N [Example 4, 4-(4-amino-2-fluoro-5-(methylthio)phenyl)-7-(1H-pyrazol-4-yl)isoxazolo[4,5-c]pyridin-3-amine hydrochloride]	90 nM		
CC(=O)c1cc(-c2ncc(-c3cnn(COC(=O)N(C)c4ncccc4COP(=O)(O)O)c3)c3onc(N)c23)c(F)cc1N [Example 12(1), (4-(5-(5-acetyl-4-amino-2-fluorophenyl)-3-aminoisoxazolo[4,5-c]pyridin-7-yl)-1H-pyrazol-1-yl)methyl methyl(3-((phosphonooxy)methyl)pyridin-2-yl)carbamate]		+ (the conversion rate of each example compound in the table to Compound B is less than 25%)	+ +
CNCC(=O)OCc1cccnc1N(C)C(=O)OC(C)n1cc(-c2cnc(-c3cc(C(C)=O)c(N)cc3F)c3c(N)noc23)cn1 (stereo not drawn) [Example 12(2), (2-(((1-(4-(5-(5-acetyl-4-amino-2-fluorophenyl)-3-aminoisoxazolo[4,5-c]pyridin-7-yl)-1H-pyrazol-1-yl)ethoxy)carbonyl)(methyl)amino)pyridin-3-yl)methyl methylglycinate]		+ + +	+ + +
CNCC(=O)OCc1cccnc1N(C)C(=O)OCn1cc(-c2cnc(-c3cc(C(C)=O)c(N)cc3F)c3c(N)noc23)cn1.Cl [Example 12(3), 2-((2-((((4-(4-(5-acetyl-4-amino-2-fluorophenyl)-3-aminoisoxazolo[4,5-c]pyridin-7-yl)-1H-pyrazol-1-yl)methoxy)carbonyl)(methyl)amino)pyridin-3-yl)methoxy)-N-methyl-2-oxoethane-1-ammonium chloride]		+ + +	+ + +
CC(=O)c1cc(-c2ncc(-c3cnn(COC(=O)OCCN4CCOCC4)c3)c3onc(N)c23)c(F)cc1N.Cl [Example 12(4), (4-(4-(5-acetyl-4-amino-2-fluorophenyl)-3-aminoisoxazolo[4,5-c]pyridin-7-yl)-1H-pyrazol-1-yl)methyl (2-morpholinoethyl)carbonate hydrochloride]		+ + +	+ + +
CC(=O)c1cc(-c2ncc(-c3cnn(COC(=O)OC[C@H]4OC(O)[C@H](O)[C@@H](O)[C@@H]4O)c3)c3onc(N)c23)c(F)cc1N (stereo partly drawn) [Example 12(5), (4-(4-(5-acetyl-4-amino-2-fluorophenyl)-3-aminoisoxazolo[4,5-c]pyridin-7-yl)-1H-pyrazol-1-yl)methyl (((2R,3S,4S,5R)-3,4,5,6-tetrahydroxytetrahydro-2H-pyran-2-yl)methyl) carbonate]		+ + +	+ + +
CC(=O)c1cc(-c2ncc(-c3cnn(COC(=O)OC[C@H]4OC(O)[C@H](N)[C@@H](O)[C@@H]4O)c3)c3onc(N)c23)c(F)cc1N.Cl (stereo partly drawn) [Example 12(6), (4-(4-(5-acetyl-4-amino-2-fluorophenyl)-3-aminoisoxazolo[4,5-c]pyridin-7-yl)-1H-pyrazol-1-yl)methyl (((2R,3S,4R,5R)-5-amino-3,4,6-trihydroxytetrahydro-2H-pyran-2-yl)methyl) carbonate hydrochloride]		+ + +	+ + +
CC(=O)c1cc(-c2ncc(-c3cnn(C(=O)NCC(=O)O)c3)c3onc(N)c23)c(F)cc1N [Example 12(9), (4-(4-(5-acetyl-4-amino-2-fluorophenyl)-3-aminoisoxazolo[4,5-c]pyridin-7-yl)-1H-pyrazole-1-carbonyl)glycine]		+ (the conversion rate of each example compound in the table to Compound B is less than 25%)	+ (the conversion rate of each example compound in the table to Compound B is less than 25%)
COC(=O)n1cc(-c2cnc(-c3cc(C(C)=O)c(N)cc3F)c3c(N)noc23)cn1 [Example 12(10), methyl 4-(4-(5-acetyl-4-amino-2-fluorophenyl)-3-aminoisoxazolo[4,5-c]pyridin-7-yl)-1H-pyrazole-1-carboxylate]		+ + +	+ + +
CC(=O)c1cc(-c2ncc(-c3cnn(COP(=O)(O)OCOC(=O)OC(C)C)c3)c3onc(N)c23)c(F)cc1N [Example 12(11), ((((4-(4-(5-acetyl-4-amino-2-fluorophenyl)-3-aminoisoxazolo[4,5-c]pyridin-7-yl)-1H-pyrazol-1-yl)methoxy)(hydroxy)phosphoryl)oxy)methyl isopropyl carbonate]		+ (the conversion rate of each example compound in the table to Compound B is less than 25%)	+ (the conversion rate of each example compound in the table to Compound B is less than 25%)
CC(=O)c1cc(-c2ncc(-c3cnn(COC(=O)N4CCC(N5CCCCC5)CC4)c3)c3onc(N)c23)c(F)cc1N [Example 12, (4-(4-(5-acetyl-4-amino-2-fluorophenyl)-3-aminoisoxazolo[4,5-c]pyridin-7-yl)-1H-pyrazol-1-yl)methyl [1,4′-bipiperidine]-1′-carboxylate]		+ (the conversion rate of each example compound in the table to Compound B is less than 25%)	+ (the conversion rate of each example compound in the table to Compound B is less than 25%)

— US20230141284A1, “CANCER THERAPEUTIC METHOD” (ONO PHARMACEUTICAL CO., LTD., priority 2020, published 2023)
